Results from ChEMBL document CHEMBL6177985, “Discovery of Novel Cyclic Peptides as SMAD2-SMAD4 Interaction Inhibitors for the Treatment of Hepatic Fibrosis” (J Med Chem, 2025).
Active and inactive are the calls of the source. The calls are words filed in the database; no cut-off is given here.

Columns and labels:
LX-2 [1] = assay: Antifibrotic activity against TGF-beta1 stimulated human LX-2 cells assessed as reduction in COL1A1 expression at 100 uM incubated for 24 hrs by Western blotting analysis; type: functional, cell-based
LX-2 [2] = assay: Antifibrotic activity against TGF-beta1 stimulated human LX-2 cells assessed as reduction in alpha-SMA expression at 100 uM incubated for 24 hrs by Western blotting analysis; type: functional, cell-based
Homo sapiens = species on record: Homo sapiens; assay: Inhibition of TGF-beta induced his tagged human SMAD2/human SMAD4 interaction at 100 uM incubated for 1 hr followed by anti-His-HRP addition and measured after 1 hr by blocking assay relative to control; conditions: time 2.0 hrs
LX-2 [3] = assay: Downregulation of TGF-beta induced SMAD2 phosphorylation level in human LX-2 cells at 100 uM by Immunoblot analysis; type: functional, cell-based
LX-2 [4] = assay: Downregulation of TGF-beta induced P65 phosphorylation level in human LX-2 cells at 100 uM by Immunoblot analysis; type: functional, cell-based
LX-2 [5] = assay: Downregulation of TGF-beta induced alpha-SMA level in human LX-2 cells at 100 uM by Immunoblot analysis; type: functional, cell-based
LX-2 [6] = assay: Downregulation of TGF-beta induced COL1A1 level in human LX-2 cells at 100 uM by Immunoblot analysis; type: functional, cell-based
LX-2 [7] = assay: Inhibition of TGF-beta induced SMAD3 phosphorylation level in human LX-2 cells at 100 uM by Western blot analysis; type: functional, cell-based
LX-2 [8] = assay: Inhibition of TGF-beta induced SMAD1/5/8 phosphorylation level in human LX-2 cells at 100 uM by Western blot analysis; type: functional, cell-based
LX-2 [9] = assay: Inhibition of TGF-beta induced SMAD2 phosphorylation level in human LX-2 cells by Western blot analysis; type: functional, cell-based; conditions: dose 25-100 µM
LX-2 [10] = assay: Inhibition of HSC activation in TGFbeta-induced human LX-2 cells assessed as reduction in alpha-SMA by Western blot analysis; type: functional, cell-based; conditions: dose 25-100 µM
LX-2 [11] = assay: Inhibition of HSC activation in TGFbeta-induced human LX-2 cells assessed as reduction in COL1A1 by Western blot analysis; type: functional, cell-based; conditions: dose 25-100 µM
LX-2 [12] = assay: Inhibition of TGF-beta induced SMAD2 phosphorylation level in human LX-2 cells at 100 uM by Western blot analysis; type: functional, cell-based
LX-2 [13] = assay: Inhibition of HSC activation in TGFbeta-induced human LX-2 cells assessed as reduction in alpha-SMA at 100 uM by Western blot analysis; type: functional, cell-based
LX-2 [14] = assay: Inhibition of HSC activation in TGFbeta-induced human LX-2 cells assessed as reduction in COL1A1 at 100 uM by Western blot analysis; type: functional, cell-based
LX-2 [15] = assay: Inhibition of SMAD2 phosphorylation level in TGF-beta and TMSO induced human LX-2 cells at 300 uM by immunoblot analysis; type: functional, cell-based
Mus musculus [16] = assay: Anti-fibrotic activity against CCl4-induced liver fibrosis male C57BL/6J mouse model assessed as effect on SMAD3 phosphorylation in liver at 400 microg/kg, ip measured for 3 weeks by Western blot analysis; type: functional, organism-based; conditions: dose 400.0 µg/kg
Mus musculus [17] = assay: Anti-fibrotic activity against CCl4-induced liver fibrosis male C57BL/6J mouse model assessed as reduction in COL1A1 expression in liver at 400 microg/kg, ip measured for 3 weeks by Western blot analysis; type: functional, organism-based; conditions: dose 400.0 µg/kg
Mus musculus [18] = assay: Anti-fibrotic activity against CCl4-induced liver fibrosis male C57BL/6J mouse model assessed as reduction in alpha-SMA expression in liver at 400 microg/kg, ip measured for 3 weeks by Western blot analysis; type: functional, organism-based; conditions: dose 400.0 µg/kg
Mus musculus [19] = assay: Anti-fibrotic activity against CCl4-induced liver fibrosis male C57BL/6J mouse model assessed as reduction in P65 phosphorylation level in liver at 400 microg/kg, ip measured for 3 weeks by Western blot analysis; type: functional, organism-based; conditions: dose 400.0 µg/kg
Mus musculus [20] = assay: Anti-fibrotic activity against CCl4-induced liver fibrosis male C57BL/6J mouse model assessed as reduction in SMAD2 level in liver at 400 microg/kg, ip measured for 3 weeks by Western blot analysis; type: functional, organism-based; conditions: dose 400.0 µg/kg
Mus musculus [21] = assay: Anti-fibrotic activity against CCl4-induced liver fibrosis male C57BL/6J mouse model assessed as reduction of AST level at 400 microg/kg, ip measured for 3 weeks by biochemical analysis; type: functional, organism-based; conditions: dose 400.0 µg/kg
Mus musculus [22] = assay: Anti-fibrotic activity against CCl4-induced liver fibrosis male C57BL/6J mouse model assessed as reduction of ALT level at 400 microg/kg, ip measured for 3 weeks by biochemical analysis; type: functional, organism-based; conditions: dose 400.0 µg/kg
Mus musculus [23] = assay: Anti-fibrotic activity against CCl4-induced liver fibrosis male C57BL/6J mouse model assessed as alleviation of COL1A1 level at 400 microg/kg, ip measured for 3 weeks by immunohistochemical staining based analysis; type: functional, organism-based; conditions: dose 400.0 µg/kg
Mus musculus [24] = assay: Anti-fibrotic activity against CCl4-induced liver fibrosis male C57BL/6J mouse model assessed as alleviation of alpha SMA level at 400 microg/kg, ip measured for 3 weeks by immunohistochemical staining based analysis; type: functional, organism-based; conditions: dose 400.0 µg/kg
Mus musculus [25] = assay: Anti-fibrotic activity against CCl4-induced liver fibrosis male C57BL/6J mouse model assessed as decrease in collagen deposition at 400 microg/kg, ip measured for 3 weeks; type: functional, organism-based; conditions: dose 400.0 µg/kg
Mus musculus [26] = assay: Anti-fibrotic activity against CCl4-induced liver fibrosis male C57BL/6J mouse model assessed as decrease in inflammatory infiltration at 400 microg/kg, ip measured for 3 weeks; type: functional, organism-based; conditions: dose 400.0 µg/kg
[27] = Stability in rat serum measured up to 48 hrs by LC-MS/MS analysis; type: ADME, cell-free
Mus musculus [28] = species on record: Mus musculus; assay: Effect on gene expression in CCl4-induced male C57BL/6J mouse assessed as change in genes associated with biological process in liver tissue by RT-PCR analysis; type: functional, organism-based
Mus musculus [29] = species on record: Mus musculus; assay: Effect on gene expression in CCl4-induced male C57BL/6J mouse assessed as change in genes associated with cellular component in liver tissue by RT-PCR analysis; type: functional, organism-based
Mus musculus [30] = species on record: Mus musculus; assay: Effect on gene expression in CCl4-induced male C57BL/6J mouse assessed as change in genes associated with molecular function in liver tissue by RT-PCR analysis; type: functional, organism-based
Mus musculus [31] = species on record: Mus musculus; assay: Effect on gene expression in CCl4-induced male C57BL/6J mouse assessed as upregulation of genes associated with inflammatory response in liver tissue by RT-PCR analysis; type: functional, organism-based
Mus musculus [32] = species on record: Mus musculus; assay: Effect on gene expression in CCl4-induced male C57BL/6J mouse assessed as upregulation of genes associated with collagen deposition in liver tissue by RT-PCR analysis; type: functional, organism-based
Mus musculus [33] = assay: Anti-fibrotic activity against CCl4-induced liver fibrosis male C57BL/6J mouse model assessed as effect on SMAD1/5/8 phosphorylation in liver at 400 microg/kg, ip measured for 3 weeks by Western blot analysis; type: functional, organism-based; conditions: dose 400.0 µg/kg

In the case of C[C@@H]1NC(=O)[C@@H]2CCCN2C(=O)[C@H](CCCNC(=N)N)NC(=O)[C@H]([C@@H](C)O)NC(=O)[C@H](CO)NC(=O)[C@H]([C@@H](C)O)NC(=O)[C@H](CCC(=O)O)NC(=O)[C@H](Cc2c[nH]c3ccccc23)NC(=O)[C@@H](Cc2ccccc2)NC(=O)[C@H](CO)NC1=O, the Activity (LX-2 [1]) is reported as “Active”, the Activity (LX-2 [2]) is reported as “Active” and the inhibition (Homo sapiens) is reported as 85.6%. The Activity (LX-2 [3]) was “Active”, the Activity (LX-2 [4]) was “Active” and the Activity (LX-2 [5]) was “Active”. For the same compound, the Activity (LX-2 [6]) was “Active”, the inhibition (LX-2 [7]) was “inactive” and the inhibition (LX-2 [8]) was “inactive”. The inhibition (LX-2 [9]) was “Dose-dependent-effect”, the inhibition (LX-2 [10]) was “Dose-dependent-effect” and the inhibition (LX-2 [11]) was “Dose-dependent-effect”. The inhibition (LX-2 [12]) was “Active”, the inhibition (LX-2 [13]) was “Active” and the inhibition (LX-2 [14]) was “Active”. The inhibition (LX-2 [15]) was “inactive”, the Activity (Mus musculus [16]) was “inactive” and the Activity (Mus musculus [17]) was “Active; Compound Showed Superior Effect Than M10”. For the same compound, the Activity (Mus musculus [18]) was “Active; Compound Showed Superior Effect Than M10”, the Activity (Mus musculus [19]) was “Active; Compound Showed Superior Effect Than M10” and the Activity (Mus musculus [20]) was “Active; Compound Showed Superior Effect Than M10”. For the same compound, the Activity (Mus musculus [21]) was “Active”, the Activity (Mus musculus [22]) was “Active” and the Activity (Mus musculus [23]) was “Active”. For the same compound, the Activity (Mus musculus [24]) was “Active”, the Activity (Mus musculus [25]) was “Active; Compound Showed Higher Efficacy Than M10” and the Activity (Mus musculus [26]) was “Active; Compound Showed Higher Efficacy Than M10”. The Stability [27] was “Stable”, the Activity (Mus musculus [28]) was “Active” and the Activity (Mus musculus [29]) was “Active”. For the same compound, the Activity (Mus musculus [30]) was “Active”, the Activity (Mus musculus [31]) was “Active” and the Activity (Mus musculus [32]) was “Active”. For the same compound, the Activity (Mus musculus [33]) was “inactive”.
